Experimental data as given in publication PMC8864717 (Chemical Science, 2021).
Where two headings read alike, the source gives them in different places.

Legend:
[1] = cited from earlier work
[2] = system: SARS-CoV-2; type: in vivo, golden Syrian hamster
[3] = system: SARS-CoV-2; assay: Viral load reduction assay, SARS-CoV-2 in Vero E6 cells; type: cell-based; conditions: Vero E6, up to 2000 μM
[4] = system: SARS-CoV-2; type: cell-based; conditions: CBS 1000 μM, NAC 1000 μM, CBS 1000 μM + 3NAC 3000 μM, non-treated 64.5%
[5] = target: SARS-CoV-2 PL^pro (Severe acute respiratory syndrome coronavirus 2, UniProt P0DTD1); type: biochemical; conditions: at comparable concentrations
[6] = target: SARS-CoV-2 M^pro (Severe acute respiratory syndrome coronavirus 2, UniProt P0DTD1); type: biochemical; conditions: at comparable concentrations
[7] = Ex vivo everted gut sac model; type: in vitro ADME; conditions: rat duodenum, within 60 min, CBS 200 μM, pH 7.4
[8] = Blood bismuth concentration after oral administration in mice; type: in vivo; conditions: Balb/c mice, oral CBS 150 mg kg^-1 (NAC 180 or 610 mg kg^-1)
[9] = target: ACE2 (Homo sapiens, UniProt Q9BYF1); assay: ACE2 activity inhibition assay; type: biochemical
[10] = pH 9.2, with NAC
[11] = system: Caco-2 cell monolayer; conditions: CBS 150 μM, without or with 10NAC 1.5 mM
[12] = SD rats
[13] = system: SARS-CoV-2; conditions: read-out: EC50, SARS-CoV-2; cited from earlier work
[14] = cited from earlier work; remark: listed apart in the source
[15] = single oral dose CBS 150 mg/kg, NAC 610 mg/kg, n = 5

Sequence of ACE2 (Q9BYF1 18-805): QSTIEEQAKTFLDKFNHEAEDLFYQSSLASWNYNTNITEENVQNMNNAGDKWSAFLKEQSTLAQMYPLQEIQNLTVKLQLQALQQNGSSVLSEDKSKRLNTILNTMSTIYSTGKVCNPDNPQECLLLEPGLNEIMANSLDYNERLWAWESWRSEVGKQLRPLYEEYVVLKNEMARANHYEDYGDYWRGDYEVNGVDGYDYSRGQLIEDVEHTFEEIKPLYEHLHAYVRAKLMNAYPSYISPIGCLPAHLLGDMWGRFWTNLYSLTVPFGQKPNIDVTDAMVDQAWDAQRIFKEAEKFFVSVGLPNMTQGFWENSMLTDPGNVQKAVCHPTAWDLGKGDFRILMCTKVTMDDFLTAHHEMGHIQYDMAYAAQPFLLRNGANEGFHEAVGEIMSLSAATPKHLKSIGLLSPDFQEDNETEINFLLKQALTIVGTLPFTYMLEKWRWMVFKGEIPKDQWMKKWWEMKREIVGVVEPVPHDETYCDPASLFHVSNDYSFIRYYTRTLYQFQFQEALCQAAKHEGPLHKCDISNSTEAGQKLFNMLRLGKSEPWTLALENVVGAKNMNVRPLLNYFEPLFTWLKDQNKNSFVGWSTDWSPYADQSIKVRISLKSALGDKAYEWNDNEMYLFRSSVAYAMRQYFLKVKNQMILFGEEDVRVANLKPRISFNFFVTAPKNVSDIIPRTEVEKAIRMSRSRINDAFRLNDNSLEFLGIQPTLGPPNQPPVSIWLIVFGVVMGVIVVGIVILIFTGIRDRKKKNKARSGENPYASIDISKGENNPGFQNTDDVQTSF

For `O=[N+]([O-])[O-].O=[N+]([O-])[O-].O=[N+]([O-])[O-].O=[N+]([O-])[O-].[Bi+3].[Bi+3].[Bi+3].[Bi+3].[Bi+3].[O-2].[OH-].[OH-].[OH-].[OH-].[OH-].[OH-].[OH-].[OH-].[OH-]` [BSN, bismuth subnitrate], the “absorption of bismuth in the rat small intestine” value [1] is given as “lower than 1%”.

For `CC(=O)N[C@@H](CS)C(=O)O` [NAC, N-acetyl-L-cysteine], the “SARS-CoV-2-NP antigen signal in alveolar tissue of hamster lungs” value ([2]; hamster, in vivo, po) was 85.67(±11.59) NP^+ cells per view, the “lung pathology” value ([2]; hamster, in vivo, po) was “partially relieve lung pathology” and the “lung viral load versus vehicle group” value ([2]; oral, CBS 300 mg kg^-1 or NAC 370 mg kg^-1, day -2 to 1, […]) was “no statistically significant difference”. For the same compound, the “anti-SARS-CoV-2 activity of NAC alone, virus copies in supernatant” value [3] was “negligible anti-SARS-CoV-2 activity”, the “viral NP antigen in infected Vero E6 cells” value [4] was 59.75% and the “inhibitory activity on SARS-CoV-2 PL^pro” value [5] was “negligible inhibitory activity”. The “inhibitory activity on SARS-CoV-2 M^pro” value [6] was “negligible inhibitory activity”.

For `CNC(=C[N+](=O)[O-])NCCSCc1ccc(CN(C)C)o1.O=C([O-])CC(O)(CC(=O)[O-])C(=O)[O-].[Bi+3]` [RBC, ranitidine bismuth citrate], the “cumulative permeated bismuth, PAMPA” value (iso-pH 1.2, in the presence of 10 mol eq. NAC) was 19.77 ng cm^−2 and the “cumulative permeated bismuth, PAMPA” value (iso-pH 1.2, without NAC) was 15.24 ng cm^−2.

For colloidal bismuth subcitrate [CBS], the “SARS-CoV-2-NP antigen signal in alveolar tissue of hamster lungs” value ([2]; hamster, in vivo, po) was 68.00(±6.08) NP^+ cells per view, the “adverse clinical signs and symptoms of infected hamsters” value ([2]; oral treatment, end of experimental period) was “mildly mitigated” and the “viral NP antigen in infected Vero E6 cells” value [4] was 37.25%. For the same compound, the “cumulative bismuth permeated, everted sac model” value [7] was 14.68(±4.12) ng cm^−2, the blood bismuth concentration ([8]; 0.5 hour) was 225.75(±86.05) μg L^−1 and the blood bismuth concentration ([8]; 1 hour) was 87.27(±21.46) μg L^−1. For the same compound, the “inhibition of ACE2 activity” value [9] was “barely displayed anti-ACE2 potency”, the “hydrolysis of CBS at pH 9.2 in the presence of NAC” value [10] was “prevent hydrolysis” and the “cumulative permeated bismuth, PAMPA” value (iso-pH 1.2, without NAC) was 16.95 ng cm^−2. For the same compound, the “cellular accumulation of bismuth in Caco-2 monolayer” value [11] was 0.33(±0.02) %, the “apparent permeability coefficient (Papp) through Caco-2 monolayer” value ([11]; pH 7.4) was 1.73(±0.02) × 10^−7 cm s^−1 and the “bismuth accumulation in the kidney” value ([12]; 24 hour after oral dose) was 6839.76(±1652.30) ng per tissue. The “bismuth accumulation in the lung” value ([12]; 24 hour after oral dose) was 552.15(±104.97) ng per tissue, the “first peak value of blood bismuth level” value ([12]; oral CBS 150 mg kg^-1, at around 0.5 h) was 277.69 µg/L and the AUC0→12 h [12, 15] was 1316(±474.00) h μg L^−1. The “Cmax (blood bismuth)” value [12, 15] was 447.06(±132.39) μg L^−1, the EC50 [13] was 4.6 µM and the solubility in water ([14]; pH 3) was “about 1 mg mL^−1”. The solubility in water ([14]; pH 7) was > 70 mg/mL and the “absorption of bismuth in the rat small intestine” value [1] was “lower than 1%”.
